Measurements taken from ChEMBL document CHEMBL1157297, “Daphmanidins E and F, alkaloids from Daphniphyllum teijsmannii” (2006).

Assays:
[1] = test system: Aorta; assay: Vasorelaxant activity against norepinephrine-induced contraction in Wistar rat thoracic aorta at 10 uM; assay type: functional; set-up: scale not given: the % may be the effect or the level left
[2] = test system: Aorta; assay: Vasorelaxant activity against norepinephrine-induced contraction in Wistar rat thoracic aorta at 100 uM; assay type: functional; set-up: scale not given: the % may be the effect or the level left

Row | Compound | Activity [1] [%] | Activity [2] [%]
1 | COC(=O)[C@@H]1C[C@]23C4=NC[C@@H](C)[C@]45CC[C@@]2(COC(C)=O)[C@H](CCC2=C3[C@@H]1CC2)[C@H]5O [DAPHMANIDIN A] | 37.5 | 
2 | COC(=O)C1=C2CCC3=C2[C@@]2(C1)C1=NC[C@@H](C)[C@]14CC[C@@]2(COC(C)=O)[C@H](CC3)[C@H]4O [DAPHMANIDIN E] |  | 34.9
3 | COC(=O)C1=C2CC[C@]34CC[C@@H]5[C@@H](O)[C@@]67CC[C@]5(COC(C)=O)[C@](C1)(C6=NC[C@H]7C)[C@]23O4 [DAPHMANIDIN F] | 45.8 | 
